Assay: Solubility test in methyl ethyl ketone
Format: physicochemical
Conditions: 1.5 g sensitiser in 100 g methyl ethyl ketone, stirred at room temperature (20° C.) for a maximum of 24 hours
Protocol: Solubility Test in Methyl Ethyl Ketone
1.5 g of the sensitiser is dissolved in 100g of methyl ethyl ketone and allowed to stir at room temperature (20° C.) for a maximum of 24 hours. If the sensitiser is completely dissolved in the methyl ethyl ketone, the sensitiser passes the solubility test and is considered as a preferred sensitiser according to the present invention.

Row | Structure (SMILES) | Solubility test MEK (15 g/kg)
1 | CCC(C)Oc1c(OC)cc(C=Cc2ccc(C=Cc3cc(OC)c(OC(C)CC)c(OC)c3)cc2)cc1OC (centres unmarked) [(D), 1,4-distyryl-(3,5-trimethoxy, 4-(2-butyl)oxy)benzene] | OK (If the sensitiser is completely dissolved in the methyl ethyl ketone, the sensitiser passes the solubility test)
2 | CCCCC(CC)COc1c(OC)cc(C=Cc2ccc(C=Cc3cc(OC)c(OCC(CC)CCCC)c(OC)c3)cc2)cc1OC (centres unmarked) [(F), 1,4-distyryl-(3,5-trimethoxy, 4-(1-(2-ethyl)hexyl)oxy)benzene] | OK (If the sensitiser is completely dissolved in the methyl ethyl ketone, the sensitiser passes the solubility test)
